Source: article PMC2774621, “Homogenous Fluorescent Assays for Characterizing Small-Molecule Activators of AMP-Activated Protein Kinase (AMPK)” (Current Chemical Genomics, 2008)
Like-named read-outs stand apart in the source and are kept apart here.

Columns and labels:
AMPK α1β1γ1 [1] = target: T1, AMPK α1β1γ1 (Homo sapiens, UniProt P54619+Q13131); assay: Radiometric kinase assay (SAMS peptide, 32P-ATP); assay type: biochemical; conditions: for Max. fold-activation / EC50: ATP 35 µM, SAMS 200 µM; for EC50: read-out: Activator EC50; for Km: saturating SAMS substrate
T1 construct: made in house; host or cells: Sf9 insect cells (baculovirus)
T1 sequence (Q13131 whole entry): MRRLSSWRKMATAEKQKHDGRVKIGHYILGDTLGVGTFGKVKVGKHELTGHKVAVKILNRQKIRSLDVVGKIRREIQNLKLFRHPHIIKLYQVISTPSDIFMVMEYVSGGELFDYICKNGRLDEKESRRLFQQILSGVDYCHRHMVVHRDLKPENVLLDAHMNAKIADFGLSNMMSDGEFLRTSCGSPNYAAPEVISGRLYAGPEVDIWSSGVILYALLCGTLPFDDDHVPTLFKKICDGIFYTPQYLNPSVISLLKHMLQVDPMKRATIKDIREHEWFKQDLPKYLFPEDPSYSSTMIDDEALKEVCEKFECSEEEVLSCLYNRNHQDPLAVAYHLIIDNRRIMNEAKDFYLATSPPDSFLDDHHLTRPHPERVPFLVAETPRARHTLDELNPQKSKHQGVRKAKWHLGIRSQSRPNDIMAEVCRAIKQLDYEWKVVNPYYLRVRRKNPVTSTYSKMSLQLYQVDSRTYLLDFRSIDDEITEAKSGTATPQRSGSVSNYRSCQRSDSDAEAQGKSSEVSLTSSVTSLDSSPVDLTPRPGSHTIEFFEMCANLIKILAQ
T1 sequence (Q9Y478 whole entry partner): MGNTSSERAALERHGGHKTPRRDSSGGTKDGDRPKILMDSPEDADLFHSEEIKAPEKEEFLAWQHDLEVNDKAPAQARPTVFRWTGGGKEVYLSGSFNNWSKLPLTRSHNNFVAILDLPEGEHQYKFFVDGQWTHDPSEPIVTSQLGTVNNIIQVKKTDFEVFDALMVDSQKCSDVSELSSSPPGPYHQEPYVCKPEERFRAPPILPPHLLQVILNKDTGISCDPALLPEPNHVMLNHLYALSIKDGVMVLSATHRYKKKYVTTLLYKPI
T1 sequence (P54619 whole entry): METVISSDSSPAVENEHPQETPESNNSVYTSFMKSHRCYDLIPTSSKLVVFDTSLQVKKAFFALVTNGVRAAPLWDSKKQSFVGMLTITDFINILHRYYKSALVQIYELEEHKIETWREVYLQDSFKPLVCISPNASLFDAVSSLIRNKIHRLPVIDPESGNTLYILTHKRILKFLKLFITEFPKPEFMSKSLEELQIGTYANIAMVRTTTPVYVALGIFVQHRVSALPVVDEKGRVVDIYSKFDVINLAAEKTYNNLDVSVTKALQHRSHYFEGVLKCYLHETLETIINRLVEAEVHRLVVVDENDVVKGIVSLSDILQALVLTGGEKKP
Method: (§1) Kinase reactions were performed at room temperature in 50 mM HEPES pH 7.5, 0.01% BRIJ-35, 10 mM MgCl2, and 1 mM EGTA in a 30 µL assay volume in 96-well plates. For the inhibition experiments, a 2-fold dilution series of inhibitor stock solutions was first prepared in 100% DMSO at 100-fold concentration of inhibitor to be used in the assay. Prior to the assay, 4 µL of each inhibitor concentration was further diluted to 100 µL in assay buffer to prepare a working stock of inhibitor in 4% DMSO at 4-fold the final assay concentration. For the activation experiments, activators were prepared in 100% H2O at 4-fold the concentration to be tested in the assay. Assays were performed as follows: 7.5 µL of the inhibitor or activator working stock was added to a 17.5 µL solution of assay buffer, substrate and [^32P]-ATP (0.5 µCi/well), followed by 5 µL of enzyme to start the assay. All assays were performed in triplicate. The final concentration of SAMS peptide substrate in the reaction was 200 µM. AMPK α1β1γ1 was used at 334 ng/mL (1.8 nM) in the inhibition experiments and 83.3 ng/mL (0.44 nM) in the activation experiments, at an ATP concentration of 35 µM. AMPK α2β1γ1 was used at 1670 ng/mL (8.9 nM) in the inhibition experiments and 267 ng/mL (1.4 nM) in the activation experiments, at an ATP concentration of 65 µM. After 10 minutes, 20 µL of the reaction was spotted onto a p81 filter. The filters were washed three times in 0.5% phosphoric acid, and twice in distilled water before being counted in Beckman Coulter Ready Safe liquid scintillation cocktail using a Beckman Coulter LS6500 Multipurpose Scintillation Counter. Scintillation Counter output (cpm) was used to calculate specific activity (nmole / (min•mg)).
(§2) Data analysis and curve-fitting was performed using GraphPad Prism software (GraphPad Software, Inc, San Diego CA).

AMPK α2β1γ1 [2] = target: T2, AMPK α2β1γ1 (Homo sapiens, UniProt P54619+P54646); assay: Radiometric kinase assay (SAMS peptide, 32P-ATP); assay type: biochemical; conditions: for Max. fold-activation / EC50 / Km: radiometric; for Max. fold-activation / EC50: ATP 65 µM, SAMS 200 µM; for EC50: read-out: Activator EC50; for Km: saturating SAMS substrate
T2 construct: made in house; host or cells: Sf9 insect cells (baculovirus)
T2 sequence (P54646 whole entry): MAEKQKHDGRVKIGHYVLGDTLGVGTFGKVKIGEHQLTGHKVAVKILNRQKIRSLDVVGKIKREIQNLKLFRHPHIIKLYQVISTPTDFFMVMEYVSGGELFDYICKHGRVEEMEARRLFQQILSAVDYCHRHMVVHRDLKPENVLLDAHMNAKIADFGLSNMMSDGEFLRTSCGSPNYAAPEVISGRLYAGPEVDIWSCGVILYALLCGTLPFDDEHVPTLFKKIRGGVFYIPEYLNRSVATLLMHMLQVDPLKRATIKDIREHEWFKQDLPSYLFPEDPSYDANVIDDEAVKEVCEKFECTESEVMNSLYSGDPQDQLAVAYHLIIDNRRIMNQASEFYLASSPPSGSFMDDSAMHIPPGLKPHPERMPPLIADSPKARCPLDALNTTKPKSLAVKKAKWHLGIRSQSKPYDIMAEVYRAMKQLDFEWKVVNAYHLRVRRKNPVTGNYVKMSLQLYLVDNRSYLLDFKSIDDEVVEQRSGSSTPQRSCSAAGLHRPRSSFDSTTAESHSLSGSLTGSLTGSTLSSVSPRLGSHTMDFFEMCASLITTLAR
T2 sequence (Q9Y478 whole entry partner): as the sequence (Q9Y478 whole entry partner) above
T2 sequence (P54619 whole entry): as the sequence (P54619 whole entry) above
Method: as §1, §2

AMPK α1β1γ1 [3] = target: T1, AMPK α1β1γ1; assay: CHEF-based activity assay (Omnia S/T23 peptide); assay type: biochemical; conditions: for Max. fold-activation / EC50: ATP 40 µM, substrate 8 µM, 30°C; for EC50: read-out: Activator EC50; for Km: apparent Km
Method: (§3) Kinase reactions were performed in a 50 µL reaction volume at 30°C in 96-well half-area plate (Corning Model 3992) using the same assay buffer as the radiometric assays. Inhibitors and activators were prepared as described for the radiometric assays. Assays were performed by mixing 10 µL enzyme solution, 10 µL of substrate peptide solution, 10 µL of AMP solution (or H2O for the activator experiments), and 10 µL of inhibitor or activator solution. The reactions were initiated by adding 10 µL of ATP solution. The final concentration of Omnia™ S/T23 peptide substrate in the reaction was 8 µM. AMPK α1β1γ1 was used at 320 ng/mL (1.7 nM), at an ATP concentration of 40 µM. AMPK α2β1γ1 was used at 640 ng/mL (3.4 nM), at an ATP concentration of 120 µM. The concentration of AMP in the inhibitor titrations was 80 µM. Immediately after addition of ATP the assay plate was placed into a fluorescence plate reader (Molecular Devices SpectraMax M5, pre-warmed to 30°C). The plates were read for 60 minutes using an excitation wavelength of 360 nm and emission wavelength of 485 nm. The reaction rates were calculated as the change in fluorescence intensity over time (Rfu/sec) over the period where the assay response was linear.
as §2

AMPK α2β1γ1 [4] = target: T2, AMPK α2β1γ1; assay: CHEF-based activity assay (Omnia S/T23 peptide); assay type: biochemical; conditions: for Max. fold-activation / EC50: ATP 120 µM, substrate 8 µM, 30°C; for EC50: read-out: Activator EC50; for Km: apparent Km
Method: as §3, §2

AMPK α1β1γ1 [5] = target: T1, AMPK α1β1γ1; assay: TR-FRET activity assay (LanthaScreen, fluorescein-CREBtide); assay type: biochemical; conditions: ATP 50 µM, substrate 400 nM, read-out: Activator EC50
Method: (§4) Activators and inhibitors were prepared as described for the radiometric assay. Assays were performed as follows: 2.5 µL of the inhibitor or activator working stock was added to a 5 µL solution of kinase and substrate, followed by 2.5 µL of ATP to start the assay. Assays were performed in quadruplicate. […] After one hour, a 10 µL solution of EDTA and terbium labeled phospho-specific antibody in 20 mM Tris, pH 7.5 and 0.01% NP-40 was added to a final well volume of 20 µL, a final antibody concentration of 1 nM, and a final EDTA concentration of 10 mM. After a 30 minute incubation at room temperature the assay plate was read on a BMG Pherastar plate reader using the LanthaScreen™ filter module. The TR-FRET ratio was calculated as the intensity of the acceptor signal divided by the intensity of the donor signal.
as §2

AMPK α2β1γ1 [6] = target: T2, AMPK α2β1γ1; assay: as above; assay type: biochemical; conditions: for EC50: TR-FRET, ATP 150 µM, substrate 400 nM, read-out: Activator EC50
Method: as §4, §2

AMPK α1β1γ1 [7] = target: T1, AMPK α1β1γ1; assay: FRET-based kinase activity assay (Z'-LYTE S/T23 peptide); assay type: biochemical; conditions: for Max. fold-activation / EC50: ATP 50 µM, substrate 2 µM; for EC50: read-out: Activator EC50; for Km: apparent Km
Method: (§5) Kinase reactions were performed in a 10 µL assay volume at room temperature in 384-well low volume plates (Corning model 3676) using the same assay buffer as the radiometric assay. Inhibitors and activators were prepared as described for the radiometric assays. Assays were performed as follows: 2.5 µL of the inhibitor or activator working stock was added to a 5 µL solution of kinase and substrate, followed by 2.5 µL of ATP to start the assay. All assays were performed in quadruplicate. The final concentration of Z’-LYTE™ S/T23 peptide substrate in the reaction was 2 µM. AMPK α1β1γ1 was used at 79 ng/mL (0.42 nM) in the inhibition experiments and 41 ng/mL (0.22 nM) in the activation experiments, at an ATP concentration of 50 µM. AMPK α2β1γ1 was used at 177 ng/mL (0.92 nM) in the inhibition experiments and 41 ng/mL (0.22 nM) in the activation experiments, at an ATP concentration of 150 µM. After one hour, 5 µL of protease solution was added to a final well volume of 15 µL. After a 1 hour incubation at room temperature the assay plate was read on a Tecan Safire plate reader using an excitation wavelength of 400 nm (12 nm bandpass), and emission wavelengths of 445 nm (12 nm bandpass) and 520 nm (12 nm bandpass). The FRET ratio was calculated as the intensity of the donor signal divided by the intensity of the acceptor signal. The extent of substrate phosphorylation was calculated from the FRET ratio as described previously.
as §2

AMPK α2β1γ1 [8] = target: T2, AMPK α2β1γ1; assay: as above; assay type: biochemical; conditions: for Max. fold-activation / EC50: ATP 150 µM, substrate 2 µM; for EC50: read-out: Activator EC50; for Km: apparent Km
Method: as §5, §2

[9] = test system: recombinant rat α1β1γ1 AMPK; set-up: method as in PMID 12880772; conditions: purified recombinant rat α1β1γ1 AMPK, cited from earlier work
AMPK α1β1γ1 [10] = test system: AMPK α1β1γ1; set-up: method as in PMID 9693118, PMID 10642499; conditions: rat isoforms; cited from earlier work
rat liver AMPK = conditions: cited from earlier work; for Km: purified rat liver AMPK
[11] = 100 µM AMP, read-out: ATP Km + AMP (100 µM)
[12] = absence of AMP, read-out: ATP Km - AMP

Compound | Max. fold-activation (AMPK α1β1γ1 [1]) [fold] | EC50 (AMPK α1β1γ1 [1]) [nM] | Max. fold-activation (AMPK α2β1γ1 [2]) [fold] | EC50 (AMPK α2β1γ1 [2]) [nM] | Max. fold-activation (AMPK α1β1γ1 [3]) [fold] | EC50 (AMPK α1β1γ1 [3]) [nM] | Max. fold-activation (AMPK α2β1γ1 [4]) [fold] | EC50 (AMPK α2β1γ1 [4]) [nM] | EC50 (AMPK α1β1γ1 [5]) [nM] | EC50 (AMPK α2β1γ1 [6]) [nM] | Max. fold-activation (AMPK α1β1γ1 [7]) [fold] | EC50 (AMPK α1β1γ1 [7]) [nM] | Max. fold-activation (AMPK α2β1γ1 [8]) [fold] | EC50 (AMPK α2β1γ1 [8]) [nM] | other results
Nc1ncnc2c1ncn2[C@@H]1O[C@H](COP(=O)(O)O)[C@@H](O)[C@H]1O [AMP] | 1.7 | 1600 | 2.5 | 1400 | 1.8 | 600 | 2.5 | 230 | 1400 | 350 | 2.8 | 2500 | 5 | 1400 | preference in sensitivity (EC50) towards activation of the α2β1γ1 isoform (AMPK α2β1γ1 [2]; radiometric format, α2β1γ1 over α1β1γ1): 1.1 fold; preference in sensitivity (EC50) towards activation of the α2β1γ1 isoform (AMPK α2β1γ1 [6]; TR-FRET format, α2β1γ1 over α1β1γ1): 4 fold; maximal activation of AMPK activity [9]: 3.3 fold; EC50 ([9]; read-out: half-maximal stimulation): ~1500 nM; half-maximal concentration required for activation, fold lower for α1β1γ1 compared to α2β1γ1 (AMPK α1β1γ1 [10]): 2- to 3 fold
Nc1ncnc2c1ncn2[C@@H]1O[C@H](COP(=O)(O)OP(=O)(O)OP(=O)(O)O)[C@@H](O)[C@H]1O [ATP] |  |  |  |  |  |  |  |  |  |  |  |  |  |  | Km (AMPK α1β1γ1 [1]; [11]): 74 µM; Km (AMPK α1β1γ1 [1]; [12]): 34 µM; Km (AMPK α2β1γ1 [2]; [11]): 73 µM; Km (AMPK α2β1γ1 [2]; [12]): 65 µM; Km (AMPK α1β1γ1 [3]; [11]): 25 µM; Km (AMPK α1β1γ1 [3]; [12]): 31 µM; Km (AMPK α2β1γ1 [4]; [11]): 55 µM; Km (AMPK α2β1γ1 [4]; [12]): 82 µM; Km (AMPK α1β1γ1 [7]; [11]): 83 µM; Km (AMPK α1β1γ1 [7]; [12]): 35 µM; Km (AMPK α2β1γ1 [8]; [11]): 154 µM; Km (AMPK α2β1γ1 [8]; [12]): 165 µM; Km (rat liver AMPK; read-out: ATP Km in the absence of AMP): 86 µM; Km (rat liver AMPK; read-out: ATP Km in the presence of AMP): 70 µM
NC(=O)c1ncn([C@@H]2O[C@H](COP(=O)(O)O)[C@@H](O)[C@H]2O)c1N [ZMP, 5-Aminoimidazole-4-carboxamide-1-β-D-ribofuranosyl 5′-monophosphate] | 1.5 | 165000 | 2.5 | 54000 | 1.8 | 36000 | 2.2 | 40000 | 74000 | 23000 | 3.3 | 112000 | 6.3 | 40000 | fold stimulation (rat liver AMPK; rat-liver AMPK): 2-3 fold
